Results reported in PMC5448077, “Development of an orally available inhibitor of CLK1 for skipping a mutated dystrophin exon in Duchenne muscular dystrophy” (Scientific Reports, 2017).

How the values were obtained:
Assay in all cases: biochemical
CHK1 = target: T1, CHK1 (Homo sapiens, UniProt O14757)
T1 construct: gene CHEK1
Method in brief: (§1)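 Reactions at room temperature in HEPES buffer (20 mM, pH 7.5, 0.01% Triton X-100, 2 mM DTT) lasted 1 or 5 h depending on kinase, with substrate peptide and ATP-metal. Phosphorylation read by electrophoretic mobility shift or IMAP polarization; kinase activity computed as P/(P + S).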

CK1δ = target: T2, CK1δ (Homo sapiens, UniProt P48730)
T2 construct: gene CSNK1D
T2 sequence (P48730 whole entry): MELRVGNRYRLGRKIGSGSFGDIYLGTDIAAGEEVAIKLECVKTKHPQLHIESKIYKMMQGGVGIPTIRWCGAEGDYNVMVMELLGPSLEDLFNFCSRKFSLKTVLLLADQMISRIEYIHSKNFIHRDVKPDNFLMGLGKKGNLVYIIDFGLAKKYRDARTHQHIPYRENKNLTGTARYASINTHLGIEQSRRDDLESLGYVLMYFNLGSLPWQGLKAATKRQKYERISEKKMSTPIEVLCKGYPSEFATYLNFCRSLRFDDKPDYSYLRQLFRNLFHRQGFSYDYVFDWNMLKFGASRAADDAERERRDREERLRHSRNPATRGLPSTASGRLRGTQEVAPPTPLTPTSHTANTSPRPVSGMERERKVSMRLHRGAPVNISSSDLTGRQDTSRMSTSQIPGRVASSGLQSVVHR
Method in brief: as §1

EPHB1 = EPHB1 (Homo sapiens, UniProt P54762)
Method in brief: as §1

EPHB4 = EPHB4 (Homo sapiens, UniProt P54760)
Sequence of EPHB4 (P54760 whole entry): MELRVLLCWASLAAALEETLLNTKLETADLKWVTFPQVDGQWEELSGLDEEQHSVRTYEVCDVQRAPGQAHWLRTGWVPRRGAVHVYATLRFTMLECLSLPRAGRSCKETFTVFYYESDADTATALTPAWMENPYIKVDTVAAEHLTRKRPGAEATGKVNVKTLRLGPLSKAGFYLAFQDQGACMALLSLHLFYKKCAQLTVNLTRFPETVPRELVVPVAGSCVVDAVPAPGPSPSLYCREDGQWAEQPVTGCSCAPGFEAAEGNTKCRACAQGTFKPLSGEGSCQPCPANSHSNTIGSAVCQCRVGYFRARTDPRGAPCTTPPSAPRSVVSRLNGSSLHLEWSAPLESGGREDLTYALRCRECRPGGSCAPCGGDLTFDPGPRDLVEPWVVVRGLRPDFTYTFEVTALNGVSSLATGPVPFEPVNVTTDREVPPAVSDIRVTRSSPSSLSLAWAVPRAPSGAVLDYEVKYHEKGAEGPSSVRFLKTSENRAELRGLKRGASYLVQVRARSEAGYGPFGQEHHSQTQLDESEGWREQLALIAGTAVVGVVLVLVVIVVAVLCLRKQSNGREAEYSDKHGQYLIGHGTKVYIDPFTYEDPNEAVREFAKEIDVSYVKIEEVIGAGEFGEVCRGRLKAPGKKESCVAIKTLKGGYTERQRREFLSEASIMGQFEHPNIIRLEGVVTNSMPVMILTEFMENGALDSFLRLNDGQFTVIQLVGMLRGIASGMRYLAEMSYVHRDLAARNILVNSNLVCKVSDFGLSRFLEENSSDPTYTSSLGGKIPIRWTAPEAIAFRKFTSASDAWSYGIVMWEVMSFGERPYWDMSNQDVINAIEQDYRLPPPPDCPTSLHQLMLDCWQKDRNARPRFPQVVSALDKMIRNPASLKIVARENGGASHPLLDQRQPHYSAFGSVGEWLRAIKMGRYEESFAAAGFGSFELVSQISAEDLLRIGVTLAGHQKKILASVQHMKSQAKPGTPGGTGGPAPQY
Method in brief: as §1

MELK = MELK (Homo sapiens, UniProt Q14680)
Method in brief: as §1

MUSK = MUSK (Homo sapiens, UniProt O15146)
Sequence of MUSK (O15146 whole entry): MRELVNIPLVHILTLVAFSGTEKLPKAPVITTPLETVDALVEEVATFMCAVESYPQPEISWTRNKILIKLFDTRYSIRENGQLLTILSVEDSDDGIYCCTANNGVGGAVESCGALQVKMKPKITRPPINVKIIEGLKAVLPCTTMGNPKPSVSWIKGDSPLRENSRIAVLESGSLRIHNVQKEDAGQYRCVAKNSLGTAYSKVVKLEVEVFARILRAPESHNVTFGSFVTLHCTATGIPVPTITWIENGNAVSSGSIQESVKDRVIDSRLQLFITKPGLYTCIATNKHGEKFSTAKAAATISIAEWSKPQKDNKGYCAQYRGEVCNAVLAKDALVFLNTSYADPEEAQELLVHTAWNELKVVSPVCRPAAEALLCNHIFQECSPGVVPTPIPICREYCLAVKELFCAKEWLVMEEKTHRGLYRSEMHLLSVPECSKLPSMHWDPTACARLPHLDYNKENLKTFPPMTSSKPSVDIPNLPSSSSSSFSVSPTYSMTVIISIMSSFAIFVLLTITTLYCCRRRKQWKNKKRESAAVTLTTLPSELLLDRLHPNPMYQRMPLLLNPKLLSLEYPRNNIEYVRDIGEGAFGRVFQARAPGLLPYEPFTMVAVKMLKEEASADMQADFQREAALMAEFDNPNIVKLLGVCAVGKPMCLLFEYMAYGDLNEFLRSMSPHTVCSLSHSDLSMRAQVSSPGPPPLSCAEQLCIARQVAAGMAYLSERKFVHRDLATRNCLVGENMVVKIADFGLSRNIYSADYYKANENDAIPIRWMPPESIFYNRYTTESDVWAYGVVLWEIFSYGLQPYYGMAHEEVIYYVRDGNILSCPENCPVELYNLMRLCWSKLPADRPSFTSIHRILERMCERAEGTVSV
Method in brief: as §1

TAOK2 = TAOK2 (Homo sapiens, UniProt Q9UL54)
Sequence of TAOK2 (Q9UL54 whole entry): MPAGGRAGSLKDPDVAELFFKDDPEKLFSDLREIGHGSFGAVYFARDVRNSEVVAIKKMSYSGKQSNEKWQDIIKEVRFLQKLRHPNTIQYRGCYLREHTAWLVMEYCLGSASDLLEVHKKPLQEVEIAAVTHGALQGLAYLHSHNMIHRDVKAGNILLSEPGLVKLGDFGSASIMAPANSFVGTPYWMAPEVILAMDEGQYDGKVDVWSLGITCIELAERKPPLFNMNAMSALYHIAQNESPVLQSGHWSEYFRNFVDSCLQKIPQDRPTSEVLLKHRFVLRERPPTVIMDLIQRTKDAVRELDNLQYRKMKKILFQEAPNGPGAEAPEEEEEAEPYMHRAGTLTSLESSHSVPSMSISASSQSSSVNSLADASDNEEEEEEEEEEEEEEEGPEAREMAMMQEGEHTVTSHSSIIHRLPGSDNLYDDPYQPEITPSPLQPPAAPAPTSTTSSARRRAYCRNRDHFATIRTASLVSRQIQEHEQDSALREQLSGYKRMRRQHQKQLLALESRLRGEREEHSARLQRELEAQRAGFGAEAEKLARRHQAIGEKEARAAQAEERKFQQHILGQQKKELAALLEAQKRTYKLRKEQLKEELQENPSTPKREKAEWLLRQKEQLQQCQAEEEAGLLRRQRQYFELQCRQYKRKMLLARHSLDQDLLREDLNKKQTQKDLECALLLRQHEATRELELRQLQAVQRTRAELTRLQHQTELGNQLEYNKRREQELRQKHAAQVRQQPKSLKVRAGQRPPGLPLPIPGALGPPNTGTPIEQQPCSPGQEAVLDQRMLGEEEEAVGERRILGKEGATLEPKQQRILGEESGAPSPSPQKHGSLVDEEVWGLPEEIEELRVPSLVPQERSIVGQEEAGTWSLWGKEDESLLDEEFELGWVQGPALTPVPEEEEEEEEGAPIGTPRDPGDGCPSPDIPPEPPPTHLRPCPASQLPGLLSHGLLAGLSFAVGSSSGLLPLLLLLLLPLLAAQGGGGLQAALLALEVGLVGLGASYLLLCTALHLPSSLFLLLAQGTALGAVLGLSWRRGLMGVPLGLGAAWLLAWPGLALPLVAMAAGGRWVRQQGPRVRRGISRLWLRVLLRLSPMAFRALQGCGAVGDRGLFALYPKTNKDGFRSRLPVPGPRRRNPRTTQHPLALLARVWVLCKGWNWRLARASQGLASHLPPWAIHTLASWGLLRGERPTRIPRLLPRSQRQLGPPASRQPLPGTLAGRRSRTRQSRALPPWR
Method in brief: as §1

TSSK1 = target: T3, TSSK1 (Homo sapiens, UniProt Q9BXA7)
T3 construct: gene TSSK1B
T3 sequence (Q9BXA7 whole entry): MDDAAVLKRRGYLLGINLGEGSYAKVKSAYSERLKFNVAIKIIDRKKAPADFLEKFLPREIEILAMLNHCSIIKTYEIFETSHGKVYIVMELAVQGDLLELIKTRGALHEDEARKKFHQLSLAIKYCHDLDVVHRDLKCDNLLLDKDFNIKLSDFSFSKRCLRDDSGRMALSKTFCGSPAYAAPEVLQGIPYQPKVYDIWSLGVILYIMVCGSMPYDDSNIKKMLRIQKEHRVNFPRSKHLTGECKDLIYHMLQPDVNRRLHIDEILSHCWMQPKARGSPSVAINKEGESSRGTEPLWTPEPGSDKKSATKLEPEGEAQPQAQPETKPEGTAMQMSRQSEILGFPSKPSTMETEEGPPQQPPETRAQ
Method in brief: as §1

TSSK2 = TSSK2 (Homo sapiens, UniProt Q96PF2)
Sequence of TSSK2 (Q96PF2 whole entry): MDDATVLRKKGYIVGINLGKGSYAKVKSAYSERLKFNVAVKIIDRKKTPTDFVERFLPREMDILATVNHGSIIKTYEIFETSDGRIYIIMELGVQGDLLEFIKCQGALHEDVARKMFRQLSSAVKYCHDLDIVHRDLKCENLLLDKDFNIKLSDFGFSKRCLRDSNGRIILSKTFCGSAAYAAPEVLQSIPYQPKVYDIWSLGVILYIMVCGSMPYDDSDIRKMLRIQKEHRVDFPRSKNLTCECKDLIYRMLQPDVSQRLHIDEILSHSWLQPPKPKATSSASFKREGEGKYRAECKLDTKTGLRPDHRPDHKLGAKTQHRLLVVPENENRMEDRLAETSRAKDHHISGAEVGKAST
Method in brief: as §1

T1 sequence (O14757 whole entry): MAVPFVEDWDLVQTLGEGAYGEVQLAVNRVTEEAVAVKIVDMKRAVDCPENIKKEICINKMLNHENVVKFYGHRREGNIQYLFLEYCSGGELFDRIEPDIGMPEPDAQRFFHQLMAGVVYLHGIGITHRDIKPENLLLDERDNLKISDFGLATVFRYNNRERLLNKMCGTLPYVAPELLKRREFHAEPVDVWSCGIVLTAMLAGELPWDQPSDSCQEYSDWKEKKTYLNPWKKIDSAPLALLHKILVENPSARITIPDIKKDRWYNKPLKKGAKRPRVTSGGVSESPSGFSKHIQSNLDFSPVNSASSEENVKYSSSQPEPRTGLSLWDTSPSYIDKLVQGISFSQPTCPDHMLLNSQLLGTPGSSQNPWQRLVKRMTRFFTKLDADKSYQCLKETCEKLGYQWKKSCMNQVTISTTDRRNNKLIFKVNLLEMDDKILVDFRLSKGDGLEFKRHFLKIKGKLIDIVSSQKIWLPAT

With `c1cc(-c2ccc3[nH]ncc3c2)ccn1` [TG693, 5-(4-pyridinyl)-1H-indazole] as the compound, how does the inhibition at 1 µM (CHK1) read?
Its inhibition at 1 µM is 1.7%.

And the inhibition at 1 µM (CK1δ)?
The inhibition at 1 µM was 21.3%.

And the inhibition at 1 µM (EPHB1)?
The inhibition at 1 µM was 2.5%.

What about the inhibition at 1 µM (EPHB4) of the same compound?
Its inhibition at 1 µM is -1.5%.

And the inhibition at 1 µM (MELK)?
The inhibition at 1 µM was 5.7%.

What about the inhibition at 1 µM (MUSK) of the same compound?
Its inhibition at 1 µM is -5%.

And the inhibition at 1 µM (TAOK2)?
The inhibition at 1 µM was 2%.

And the inhibition at 1 µM (TSSK1)?
The inhibition at 1 µM was 3%.

And the inhibition at 1 µM (TSSK2)?
The inhibition at 1 µM was -0.1%.
